“Also recorded” adds a separate entry of the source. Where two headings read alike, the source gives them in different places.
What was measured:
[1] = Side effect liability: sedation or ataxia in the hamster; assay type: in vivo; conditions: up to 100 mg/kg s.c.
[2] = Pharmacokinetics and oral bioavailability in the rat; assay type: in vivo; conditions: plasma; for Cmax: fasted male Wistar rats; for AUC(0-inf): read-out: AUC zero to infinite time; for half-life: read-out: t1/2 terminal elimination half-life (converted); for clearance: read-out: Cl total systemic clearance; for Vd: read-out: Vd steady-state volume of distribution
Procedure: 0.5% methyl cellulose, and nanosystem vehicle, The drug was administered either PO by gavage or IV via jugular vein. Blood samples were drawn from jugular vein cannulac into syringes containing heparin before dosing and at different times up to 24 hours postdose. Plasma was harvested by centrifugation and stored at -20° C. until analysis. Plasma samples were analyzed for The Compound using a validated liquid chromatographic method.

[3] = test system: apomorphine-induced emesis; test: Apomorphine-induced emesis in the ferret; conditions: Mustela putorius, 1 h, read-out: MED, apomorphine-induced emesis
[4] = test system: vehicle-induced emetic response; test: PEG-200 vehicle-induced emetic response in the ferret; assay type: in vivo; conditions: 10 mg/kg; PEG-200 1 mL/kg i.p.
cisplatin-induced emesis [5] = conditions: cisplatin 5 mg/kg i.p.; The Compound 10 mg/kg or ondansetron 1 mg/kg i.p. three times a day
NK1 recognition sites [6] = biological target: NK1 recognition sites (Mustela putorius, UniProt M3YAE5); test: NK1 binding, ferret
[7] = Brain penetration in the rat using HPLC assay; assay type: in vivo; conditions: for Tmax: read-out: time of highest brain concentration (converted);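 as to % Dose in Brain: IV 4.5 mg/kg via tail vein or PO 21.4 mg/kg by gavage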;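 as to amount in brain: IV 4.5 mg/kg via tail vein or PO 21.4 mg/kg by gavage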
Procedure: Three rats were used for each time point. Prior to blood and brain sampling, rats were anesthetized with ether. Blood samples were collected by cardiac puncture. After transcardiac perfusion with normal saline, whole brains were collected. Plasma and brain samples were analyzed using liquid chromatographic florescence detection methods. […] Total amount in brain at these times was respectively 2.5 and 0.04 μg (Tables 2 and 13). Brain to plasma concentration ratio after IV administration was highest (1.8) at 15 minutes and then decreased to a steady value approximately 0.5 at later postdose times (Table 2).

[8] = Side effect liability: sedation or ataxia in the mouse; assay type: in vivo; conditions: up to 100 mg/kg s.c.
pancreatic amylase = test: Secretion of pancreatic amylase in the rat; assay type: in vivo; conditions: 0.01-10 mg/kg i.v.
[9] = test system: copper sulphate-induced emesis; test: Copper sulphate-induced emesis in the ferret; conditions: Mustela putorius, 2 h, read-out: MED, copper sulphate-induced emesis
[10] = Blood pressure and heart rate of anaesthetized guinea-pigs; assay type: in vivo, guinea-pig; conditions: 0.1-1.0 mg/kg i.v.
cisplatin-induced emesis [11] = test: Cisplatin-induced acute emesis in the ferret; assay type: in vivo
Excerpt: Adult male albino Fitch ferrets (>1 kg weight) were individually housed with free access to food (SDS Diet "C", Special Diet Services Ltd, Essex, U.K.). Thirty minutes prior to the commencement of the studies, the ferrets were presented with 100 g of commercially available tinned cat food.

NK1 recognition sites [12] = biological target: T1, NK1 recognition sites (Mesocricetus auratus, UniProt A0A1U7QPR6); test: NK1 binding, hamster brain
T1 construct: NK1 recognition sites present in human cell line, guinea pig, dog, ferret, and hamster brain; from tissue; host or cells: hamster brain
T1 sequence (A0A1U7QPR6 1-407): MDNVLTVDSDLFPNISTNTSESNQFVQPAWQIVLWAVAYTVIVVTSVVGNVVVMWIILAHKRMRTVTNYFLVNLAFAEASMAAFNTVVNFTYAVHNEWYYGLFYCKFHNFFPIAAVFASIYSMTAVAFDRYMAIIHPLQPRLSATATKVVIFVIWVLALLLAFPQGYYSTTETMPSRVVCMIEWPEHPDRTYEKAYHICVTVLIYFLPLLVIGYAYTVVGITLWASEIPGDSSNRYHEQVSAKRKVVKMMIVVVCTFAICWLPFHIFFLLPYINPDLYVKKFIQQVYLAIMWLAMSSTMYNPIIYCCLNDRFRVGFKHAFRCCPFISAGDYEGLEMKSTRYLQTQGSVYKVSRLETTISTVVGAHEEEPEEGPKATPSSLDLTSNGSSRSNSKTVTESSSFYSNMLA

NK1 recognition sites (Mustela putorius, UniProt M3YAE5), sequence (M3YAE5 1-407): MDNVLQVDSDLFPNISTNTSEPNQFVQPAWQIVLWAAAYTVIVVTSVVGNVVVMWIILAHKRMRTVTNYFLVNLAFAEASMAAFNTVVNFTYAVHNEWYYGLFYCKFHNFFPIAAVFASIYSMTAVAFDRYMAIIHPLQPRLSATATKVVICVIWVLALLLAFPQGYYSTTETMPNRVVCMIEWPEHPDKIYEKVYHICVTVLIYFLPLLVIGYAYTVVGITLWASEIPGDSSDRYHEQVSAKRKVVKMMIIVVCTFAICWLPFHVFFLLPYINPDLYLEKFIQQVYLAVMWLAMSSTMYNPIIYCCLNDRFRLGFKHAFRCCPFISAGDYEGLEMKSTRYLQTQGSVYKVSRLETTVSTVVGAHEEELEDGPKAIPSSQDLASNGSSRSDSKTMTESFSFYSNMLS

C[C@H](NC(=O)[C@@](C)(Cc1c[nH]c2ccccc12)NC(=O)OCc1cc2ccccc2o1)c1ccccc1 [The Compound, [R,S]-[2-(1H-Indol-3-yl)-1-methyl-1-(1-phenyl-ethylcarbamoyl)-ethyl]-carbamic acid benzofuran-2-ylmethyl ester]
ataxia [1]: failed to induce | sedation [1]: failed to induce | Tmax ([2]; MC suspension PO 3.7 mg/kg): 3.5 h | Cmax ([2]; MC suspension PO 3.7 mg/kg): 15.1 ng/mL | bioavailability ([2]; MC suspension PO 3.7 mg/kg, read-out: % F absolute oral bioavailability): 4.1% | AUC(0-inf) ([2]; MC suspension PO 3.7 mg/kg): 107 ng·h/mL | half-life ([2]; MC suspension PO 3.7 mg/kg): 2.8 h | AUC(0-inf) ([2]; NANOSUSPENSION IV 4.6 mg/kg): 2790 ng·h/mL | clearance ([2]; NANOSUSPENSION IV 4.6 mg/kg): 27.8 mL/min/kg | Vd ([2]; NANOSUSPENSION IV 4.6 mg/kg): 3.7 L/kg | half-life ([2]; NANOSUSPENSION IV 4.6 mg/kg): 4.8 h | Tmax ([2]; NANOSUSPENSION PO 18.4 mg/kg): 2.3 h | Cmax ([2]; NANOSUSPENSION PO 18.4 mg/kg): 643 ng/mL | bioavailability ([2]; NANOSUSPENSION PO 18.4 mg/kg, read-out: % F absolute oral bioavailability): 47% | AUC(0-inf) ([2]; NANOSUSPENSION PO 18.4 mg/kg): 5220 ng·h/mL | half-life ([2]; NANOSUSPENSION PO 18.4 mg/kg): 2.5 h | AUC(0-inf) ([2]; PEG-400 solution IV 5 mg/kg): 3560 ng·h/mL | clearance ([2]; PEG-400 solution IV 5 mg/kg): 23.9 mL/min/kg | Vd ([2]; PEG-400 solution IV 5 mg/kg): 3 L/kg | half-life ([2]; PEG-400 solution IV 5 mg/kg): 3.5 h | Tmax ([2]; PEG-400 solution PO 20 mg/kg): 5 h | Cmax ([2]; PEG-400 solution PO 20 mg/kg): 774 ng/mL | bioavailability ([2]; PEG-400 solution PO 20 mg/kg, read-out: % F absolute oral bioavailability): 49% | AUC(0-inf) ([2]; PEG-400 solution PO 20 mg/kg): 6960 ng·h/mL | half-life ([2]; PEG-400 solution PO 20 mg/kg): 3 h | bioavailability ([2]; po, nanosuspension and PEG/EtOH/Water vehicles, read-out: absolute oral bioavailability): 47 to 49% | minimal effective dose [3]: 30 mg/kg | antagonism of vehicle-induced emetic response [4]: completely antagonized | delayed emesis during the 3 days (3-72 hours) (cisplatin-induced emesis [5]): completely blocked | retching and vomiting during the first 3 hours of the emetic response (acute) (cisplatin-induced emesis [5]): completely blocked | affinity to NK1 recognition sites (NK1 recognition sites [6]): nanamolar affinity | total amount in brain ([7]; IV 4.5 mg/kg, 15 minutes): 2.5 µg | Brain Conc. (BC) ([7]; IV bolus 4.5 mg/kg in PEG-400/EtOH/Water, 0.25 h, 4.5 mg/kg, 15 min): 1448 ± 456 ng/g | % Dose in Brain ([7]; IV bolus 4.5 mg/kg, 0.25 h): 0.235 ± 0.051% | Amount in Brain ([7]; IV bolus 4.5 mg/kg, 0.25 h): 2711 ± 668 ng | % Dose in Brain ([7]; IV bolus 4.5 mg/kg, 2 h): 0.0098% | Amount in Brain ([7]; IV bolus 4.5 mg/kg, 2 h): 114 ± 8.6 ng | % Dose in Brain ([7]; IV bolus 4.5 mg/kg, 4 h): 0.0033 ± 0.0003% | Amount in Brain ([7]; IV bolus 4.5 mg/kg, 4 h): 40 ± 3.4 ng | % Dose in Brain ([7]; IV bolus 4.5 mg/kg, 8 h): 0.0078% | Amount in Brain ([7]; IV bolus 4.5 mg/kg, 8 h): 9.6 ng | % Dose in Brain ([7]; PO 21.4 mg/kg, 0.25 h): 0.00095 ± 0.00053% | Amount in Brain ([7]; PO 21.4 mg/kg, 0.25 h): 57 ± 31 ng | % Dose in Brain ([7]; PO 21.4 mg/kg, 2 h): 0.00291% | Amount in Brain ([7]; PO 21.4 mg/kg, 2 h): 189 ± 156 ng | total amount in brain ([7]; PO 21.4 mg/kg, 2 hours): 0.04 µg | % Dose in Brain ([7]; PO 21.4 mg/kg, 4 h): 0.0064% | Amount in Brain ([7]; PO 21.4 mg/kg, 4 h): 410 ± 333 ng | % Dose in Brain ([7]; PO 21.4 mg/kg, 8 h): 0.0013 ± 0.0012% | Amount in Brain ([7]; PO 21.4 mg/kg, 8 h): 81 ± 73 ng | % Dose in Brain ([7]; PO 21.4 mg/kg, 12 h): 0.00047 ± 0.00017% | Amount in Brain ([7]; PO 21.4 mg/kg, 12 h): 30 ng | Tmax ([7]; brain, IV 4.5 mg/kg): 0.25 h | Tmax ([7]; brain, PO 21.4 mg/kg): 2 h | Kp ([7]; brain, iv, 4.5 mg/kg, IV 4.5 mg/kg, later postdose times, read-out: brain to plasma concentration ratio, steady value): ~0.5 | concentration at 0.25 h ([7]; brain, iv, 4.5 mg/kg, IV bolus 4.5 mg/kg in PEG-400/EtOH/Water, 0.25 h, read-out: Brain Conc. (BC)): 1400 ng/g | Kp at 0.25 h ([7]; brain, iv, 4.5 mg/kg, IV bolus 4.5 mg/kg, 0.25 h, read-out: BC/PC Ratio): 1.8 | Kp at 2 h ([7]; brain, iv, 4.5 mg/kg, IV bolus 4.5 mg/kg, 2 h, read-out: BC/PC Ratio): 0.47 ± 0.11 | concentration at 2 h ([7]; brain, iv, 4.5 mg/kg, IV bolus 4.5 mg/kg, 2 h, read-out: Brain Conc. (BC)): 57 ± 4.5 ng/g | Kp at 4 h ([7]; brain, iv, 4.5 mg/kg, IV bolus 4.5 mg/kg, 4 h, read-out: BC/PC Ratio): 0.47 ± 0.05 | concentration at 4 h ([7]; brain, iv, 4.5 mg/kg, IV bolus 4.5 mg/kg, 4 h, read-out: Brain Conc. (BC)): 20 ± 1.9 ng/g | concentration at 8 h ([7]; brain, iv, 4.5 mg/kg, IV bolus 4.5 mg/kg, 8 h, N = 1, read-out: Brain Conc. (BC)): 4.8 ng/g | Kp at 8 h ([7]; brain, iv, 4.5 mg/kg, IV bolus 4.5 mg/kg, 8 h, read-out: BC/PC Ratio): 0.52 | concentration at 0.25 h ([7]; brain, po, 21.4 mg/kg, PO 21.4 mg/kg in PEG-400/EtOH/Water, 0.25 h, read-out: Brain Conc. (BC)): 31 ± 17 ng/g | Kp at 0.25 h ([7]; brain, po, 21.4 mg/kg, PO 21.4 mg/kg, 0.25 h, read-out: BC/PC Ratio): 0.27 ± 0.06 | Kp at 2 h ([7]; brain, po, 21.4 mg/kg, PO 21.4 mg/kg, 2 h, read-out: BC/PC Ratio): 0.3 ± 0.03 | concentration at 2 h ([7]; brain, po, 21.4 mg/kg, PO 21.4 mg/kg, 2 h, read-out: Brain Conc. (BC)): 96 ± 79 ng/g | Kp at 4 h ([7]; brain, po, 21.4 mg/kg, PO 21.4 mg/kg, 4 h, read-out: BC/PC Ratio): 0.29 ± 0.09 | concentration at 4 h ([7]; brain, po, 21.4 mg/kg, PO 21.4 mg/kg, 4 h, read-out: Brain Conc. (BC)): 212 ± 168 ng/g | Kp at 8 h ([7]; brain, po, 21.4 mg/kg, PO 21.4 mg/kg, 8 h, read-out: BC/PC Ratio): 0.33 ± 0.11 | concentration at 8 h ([7]; brain, po, 21.4 mg/kg, PO 21.4 mg/kg, 8 h, read-out: Brain Conc. (BC)): 41 ± 38 ng/g | Kp at 12 h ([7]; brain, po, 21.4 mg/kg, PO 21.4 mg/kg, 12 h, read-out: BC/PC Ratio): 0.41 ± 0.27 | concentration at 12 h ([7]; brain, po, 21.4 mg/kg, PO 21.4 mg/kg, 12 h, read-out: Brain Conc. (BC)): 15 ± 5 ng/g | penetration into the brain ([7]; following IV administration): fast | concentration at 0.25 h ([7]; plasma, iv, 4.5 mg/kg, IV bolus 4.5 mg/kg, 0.25 h, read-out: Plasma Conc. (PC)): 819 ± 87 ng/mL | concentration at 2 h ([7]; plasma, iv, 4.5 mg/kg, IV bolus 4.5 mg/kg, 2 h, read-out: Plasma Conc. (PC)): 124 ± 17 ng/mL | concentration at 4 h ([7]; plasma, iv, 4.5 mg/kg, IV bolus 4.5 mg/kg, 4 h, read-out: Plasma Conc. (PC)): 43 ± 5.6 ng/mL | concentration at 8 h ([7]; plasma, iv, 4.5 mg/kg, IV bolus 4.5 mg/kg, 8 h, read-out: Plasma Conc. (PC)): 5.6 ± 3.3 ng/mL | concentration at 12 h ([7]; plasma, iv, 4.5 mg/kg, IV bolus 4.5 mg/kg, 12 h, read-out: Plasma Conc. (PC)): 4 ± 1.1 ng/mL | concentration at 0.25 h ([7]; plasma, po, 21.4 mg/kg, PO 21.4 mg/kg, 0.25 h, read-out: Plasma Conc. (PC)): 126 ± 92 ng/mL | concentration at 2 h ([7]; plasma, po, 21.4 mg/kg, PO 21.4 mg/kg, 2 h, read-out: Plasma Conc. (PC)): 301 ± 244 ng/mL | concentration at 4 h ([7]; plasma, po, 21.4 mg/kg, PO 21.4 mg/kg, 4 h, read-out: Plasma Conc. (PC)): 642 ± 433 ng/mL | concentration at 8 h ([7]; plasma, po, 21.4 mg/kg, PO 21.4 mg/kg, 8 h, read-out: Plasma Conc. (PC)): 108 ± 80 ng/mL | concentration at 12 h ([7]; plasma, po, 21.4 mg/kg, PO 21.4 mg/kg, 12 h, read-out: Plasma Conc. (PC)): 45 ± 20 ng/mL | ataxia [8]: failed to induce | sedation [8]: failed to induce | stimulation of secretion of pancreatic amylase (pancreatic amylase): failed | minimal effective dose [9]: 30 mg/kg | blood pressure [10]: failed to affect | heart rate [10]: failed to affect | antagonism of the emetic response (cisplatin-induced emesis [11]; 30 mg/kg i.p., cisplatin 10 mg/kg i.p.): complete antagonism; also recorded: completely antagonized | minimal effective dose (cisplatin-induced emesis [11]; Mustela putorius, i.p. in PEG-200, 3-30 mg/kg, 1 hour before cisplatin 10 mg/kg i.p., 4-hour observation, read-out: minimum effective dose, frequency of vomiting and retching): 3 mg/kg | affinity to NK1 recognition sites (NK1 recognition sites [12]): nanamolar affinity

Reference: patent US5998435A, “Use of a tachykinin antagonist for the manufacture of a medicament for the treatment of emesis” (priority 1998, dated 1999)
